From patent US10780101B2, “Amide derivatives of squalamine for the treatment of infections” (VIRBAC, priority 2016, dated 2020)
≈ marks a conversion by molar mass, not a printed value.

How the values were obtained:
[1] = system: S. aureus Human ATCC 25923; experiment: MIC determination, S. aureus human ATCC 25923; format: cell-based; conditions: Staphylococcus aureus, ATCC25923; Gram-positive; Mueller-Hinton medium, 24 h at 37° C.
Description: (§1) A negative control (2 mL of sterile culture medium)
(§2) A positive control (1940 μL of culture medium+40 μL of DMSO+20 μL of the bacterial suspension) from a thawed biological strain (the biological strains are stored at −80° C. in glycerol).
(§3) The tubes were incubated at 37° C. for 24 hours at 100 rpm.
(§4) The microorganisms were handled under a type L2 laboratory fume cupboard and, before any handling, a UV cycle was programmed and only sterile material was used. […] The chemical compounds to be tested were prepared in a DMSO/methanol mixture (50/50) at a concentration of 5 mg/mL.
(§5) After 24 hours of incubation, a measurement of the optical density was taken using a spectrophotometer at 600 nm, collecting 100 μL of the bacterial suspension diluted in 900 μL of the sterile culture medium. This test required the use of a 96-well plate and the required volume of the microbial suspension to be seeded was calculated for an OD corresponding to a value equal to 0.01 in each well. In this plate, the first line corresponded to the negative control (195 μL of sterile culture medium in each well), the second line corresponded to the positive control (seeded culture medium supplemented with 2% of DMSO), and the third line was loaded twice with bacterial suspension; 8 μL of test product were placed in each well. Thereafter, a 0.5 cascade dilution was performed from this line.
(§6) The first column served as inhibition control. A sterile filter was then placed on the microplate, allowing the passage of gases but not of contaminants. The microplate was incubated at 37° C. under a humid atmosphere for 24 hours.
(§7) NB: The medium used is Mueller-Hinton (MH) medium for bacteria. All the tests were performed in duplicate.
(§8) After incubation, the filter was replaced with a transparent film, and an OD reading was then taken in an iEMS plate spectrophotometer at 620 nm. Calculation of the minimum inhibitory concentration (MIC) was performed.

S. aureus Animal (340) = experiment: MIC determination, S. aureus animal (340); format: cell-based; conditions: Staphylococcus aureus; Gram-positive; Mueller-Hinton medium, 24 h at 37° C.
Description: as §1, §2, §3, §4, §5, §6, §7, §8

[2] = system: S. intermedius Animal (1051997); experiment: MIC determination, S. intermedius animal (1051997); format: cell-based; conditions: Staphylococcus intermedius; Gram-positive; Mueller-Hinton medium, 24 h at 37° C.
Description: as §1, §2, §3, §4, §5, §6, §7, §8

[3] = system: E. faecalis Human ATCC 29212; experiment: MIC determination, E. faecalis human ATCC 29212; format: cell-based; conditions: Enterococcus faecalis, ATCC29212; Gram-positive; Mueller-Hinton medium, 24 h at 37° C.
Description: as §1, §2, §3, §4, §5, §6, §7, §8

E. coli Human ATCC 28922 = experiment: MIC determination, E. coli human ATCC 28922; format: cell-based; conditions: Escherichia coli, ATCC28922; Gram-negative; Mueller-Hinton medium, 24 h at 37° C.
Description: as §1, §2, §3, §4, §5, §6, §7, §8

E. coli Animal (1956) = experiment: MIC determination, E. coli animal (1956); format: cell-based; conditions: Escherichia coli; Gram-negative; Mueller-Hinton medium, 24 h at 37° C.
Description: as §1, §2, §3, §4, §5, §6, §7, §8

[4] = system: P. aeruginosa Human ATCC 27853; experiment: MIC determination, P. aeruginosa human ATCC 27853; format: cell-based; conditions: Pseudomonas aeruginosa, ATCC27853; Gram-negative; Mueller-Hinton medium, 24 h at 37° C.
Description: as §1, §2, §3, §4, §5, §6, §7, §8

[5] = system: P. aeruginosa Animal (1051575); experiment: MIC determination, P. aeruginosa animal (1051575); format: cell-based; conditions: Pseudomonas aeruginosa; Gram-negative; Mueller-Hinton medium, 24 h at 37° C.
Description: as §1, §2, §3, §4, §5, §6, §7, §8

CHO-K1 cells = experiment: WST1 cytotoxicity test on CHO-K1 cells; format: cell-based, Chinese hamster; conditions: Cricetulus griseus, CHO-K1, 24 h, read-out: IC50 (μg/mL) CHO
Description: Test WST1 was used to measure the cytotoxic activity of the products. This is a colorimetric test which makes it possible to measure the viability and the degree of cell proliferation. It is based on cleavage of the colorless tetrazolium salts WST-1 (4-[3-(4-iodophenyl)-2-(4-nitrophenyl)-2H-5-tetrazolio]-1,3-benzene disulfonate) with mitochondrial dehydrogenases to the yellow-colored formazan derivative, which may be quantified by spectrophotometry at 420-480 nm.
The WST1 test was performed on Chinese hamster ovary cells. The CHO-K1 cells (ATCC, USA) are kept in culture in McCoy's 5A medium supplemented with 10% fetal calf serum, 2 mM of L-glutamine and a mixture of penicillin-streptomycin (100 U/ml: 10 μg/ml). The culture is incubated at 37° C. under an atmosphere enriched in CO2 (5%), and subcultured every two days.
The cells are transferred into 96-well plates (25000 cells/mL) in whole McCoy's 5A medium, and maintained for 24 hours at 37° C. under a humid atmosphere enriched in CO2 (5%). Increasing concentrations of test products are added to the wells in double tests and 8 growth controls containing the cells in the medium alone are included in each series of tests. After 24 hours at 37° C. (5% CO2), the culture medium is removed, the cells are rinsed in phosphate buffer (PBS) and 50 μL of PBS containing 10% of reagent WST1 are added to each well. After 20 minutes of incubation at 37° C., the results are read by spectrophotometry at 450 nm.
The results are expressed in dose-response relationships, modeled by nonlinear regression analysis using the TableCurve software. The 50% inhibitory concentration (IC50) represents the concentration of product that is capable of reducing the cell viability by 50%.

P. aeruginosa (1051575) = experiment: Potentiation of doxycycline activity (combination MIC); format: cell-based, Pseudomonas aeruginosa; conditions: in presence of doxycycline 2 μg/mL; 24 hours at 37° C.

Structure (SMILES) | MIC [1] | MIC (S. aureus Animal (340)) | MIC [2] | MIC [3] | MIC (E. coli Human ATCC 28922) | MIC (E. coli Animal (1956)) | MIC [4] | MIC [5] | IC50 (CHO-K1 cells) | MIC - P. aeruginosa (1051575): content of compound of formula (I) to restore the doxycycline activity (at 2 μg/mL) (P. aeruginosa (1051575))
CNC(=O)CC[C@@H](C)[C@H]1CCC2C3C(CC[C@@]21C)[C@@]1(C)CC[C@H](NCCCNCCCNCCCN)CC1C[C@H]3O (stereo partly drawn) [(10), 3β-norspermino-N-methylchenodeoxycholamide] | 7 µg/mL (≈ 12.2 µM) | 1 µg/mL (≈ 1.74 µM) | 1 µg/mL (≈ 1.74 µM) | 14 µg/mL (≈ 24.3 µM) | 14 µg/mL (≈ 24.3 µM) | 7 µg/mL (≈ 12.2 µM) | 28 µg/mL (≈ 48.6 µM) | 5 µg/mL (≈ 8.68 µM) | 35 µg/mL (≈ 60.8 µM) | 1 µg/mL
CNC(=O)CC[C@@H](C)[C@H]1CCC2C3C(CC[C@@]21C)[C@@]1(C)CC[C@H](NCCCN2CCN(CCCN)CC2)CC1C[C@H]3O (stereo partly drawn) [(12), 3β-(1,4-bis(3-aminopropyl)piperazine)-N-methylchenodeoxycholamide] | 8 µg/mL (≈ 13.6 µM) | 4 µg/mL (≈ 6.8 µM) | 2 µg/mL (≈ 3.4 µM) | 15 µg/mL (≈ 25.5 µM) | 30 µg/mL (≈ 51 µM) | 15 µg/mL (≈ 25.5 µM) | 60 µg/mL (≈ 102 µM) | 30 µg/mL (≈ 51 µM) | 50 µg/mL (≈ 85 µM) | 8 µg/mL
CCN(CC)C(=O)CC[C@@H](C)[C@H]1CCC2C3C(CC[C@@]21C)[C@@]1(C)CC[C@H](NCCCNCCCN)CC1C[C@H]3O (stereo partly drawn) [(13), 3β-norspermidino-N,N-diethylchenodeoxycholamide] | 2 µg/mL (≈ 3.57 µM) | 4 µg/mL (≈ 7.13 µM) | 2 µg/mL (≈ 3.57 µM) | 2 µg/mL (≈ 3.57 µM) | 8 µg/mL (≈ 14.3 µM) | 8 µg/mL (≈ 14.3 µM) | 16 µg/mL (≈ 28.5 µM) | 16 µg/mL (≈ 28.5 µM) | 22 µg/mL (≈ 39.2 µM) | 2 µg/mL
CC(C)NC(=O)CC[C@@H](C)[C@H]1CCC2C3C(CC[C@@]21C)[C@@]1(C)CC[C@H](NCCCNCCCNCCCN)CC1C[C@@H]3O (stereo partly drawn) [(14), 3β-norspermino-N-isopropylursodeoxycholamide] | 16 µg/mL (≈ 26.5 µM) | 32 µg/mL (≈ 53 µM) | 4 µg/mL (≈ 6.62 µM) | 128 µg/mL (≈ 212 µM) | 128 µg/mL (≈ 212 µM) | 128 µg/mL (≈ 212 µM) | 64 µg/mL (≈ 106 µM) | 128 µg/mL (≈ 212 µM) | 90 µg/mL (≈ 149 µM) | 1 µg/mL
CC(C)NC(=O)CC[C@@H](C)[C@H]1CCC2C3CCC4C[C@@H](NCCCNCCCNCCCN)CC[C@]4(C)C3CC[C@@]21C (stereo partly drawn) [(17), 3β-norspermino-N-isopropyllithocholamide] | 8 µg/mL (≈ 13.6 µM) | 8 µg/mL (≈ 13.6 µM) | 4 µg/mL (≈ 6.8 µM) | 8 µg/mL (≈ 13.6 µM) | 16 µg/mL (≈ 27.2 µM) | 32 µg/mL (≈ 54.4 µM) | 64 µg/mL (≈ 109 µM) | 32 µg/mL (≈ 54.4 µM) | 17 µg/mL (≈ 28.9 µM) | 2 µg/mL
CC(C)NC(=O)CC[C@@H](C)[C@H]1CCC2C3CCC4C[C@@H](NCCCNCCCN)CC[C@]4(C)C3CC[C@@]21C (stereo partly drawn) [(18), 3β-norspermidino-N-isopropyllithocholamide] | 6 µg/mL (≈ 11.3 µM) | 3 µg/mL (≈ 5.65 µM) | 0.8 µg/mL (≈ 1.51 µM) | 12 µg/mL (≈ 22.6 µM) | 26 µg/mL (≈ 49 µM) | 3 µg/mL (≈ 5.65 µM) | 104 µg/mL (≈ 196 µM) | 26 µg/mL (≈ 49 µM) | 20 µg/mL (≈ 37.7 µM) | 0.8 µg/mL
CC(C)NC(=O)CC[C@@H](C)[C@H]1CCC2C3CCC4C[C@@H](NCCNCCNCCNCCNCCN)CC[C@]4(C)C3C[C@H](O)[C@@]21C (stereo partly drawn) [(20), 3β-(pentaethylenehexamine)-N-isopropyldeoxycholamide] | 8 µg/mL (≈ 12.3 µM) | 8 µg/mL (≈ 12.3 µM) | 4 µg/mL (≈ 6.17 µM) | 8 µg/mL (≈ 12.3 µM) | 8 µg/mL (≈ 12.3 µM) | 16 µg/mL (≈ 24.7 µM) | 32 µg/mL (≈ 49.4 µM) | 32 µg/mL (≈ 49.4 µM) | 18 µg/mL (≈ 27.8 µM) | 4 µg/mL
CC(C)NC(=O)CC[C@@H](C)[C@H]1CCC2C3C(CC[C@@]21C)[C@@]1(C)CC[C@H](NCCNCCNCCNCCNCCN)CC1C[C@H]3O (stereo partly drawn) [(22), 3β-(pentaethylenehexamine)-N-isopropylchenodeoxycholamide] | 8 µg/mL (≈ 12.3 µM) | 8 µg/mL (≈ 12.3 µM) | 2 µg/mL (≈ 3.09 µM) | 32 µg/mL (≈ 49.4 µM) | 32 µg/mL (≈ 49.4 µM) | 32 µg/mL (≈ 49.4 µM) | 130 µg/mL (≈ 201 µM) | 65 µg/mL (≈ 100 µM) | 120 µg/mL (≈ 185 µM) | 4 µg/mL
CC(C)NC(=O)CC[C@@H](C)[C@H]1CCC2C3CCC4C[C@@H](NCCNCCNCCNCCNCCN)CC[C@]4(C)C3CC[C@@]21C (stereo partly shown) [(24)] | 8 µg/mL (≈ 12.7 µM) | 8 µg/mL (≈ 12.7 µM) | 4 µg/mL (≈ 6.33 µM) | 16 µg/mL (≈ 25.3 µM) | 32 µg/mL (≈ 50.6 µM) | 64 µg/mL (≈ 101 µM) | 128 µg/mL (≈ 203 µM) | 128 µg/mL (≈ 203 µM) | 35 µg/mL (≈ 55.4 µM) | 8 µg/mL
CC(C)NC(=O)CC[C@@H](C)[C@H]1CCC2C3C(C[C@H](O)[C@@]21C)[C@@]1(C)CC[C@H](NCCCN(C)CCCN)CC1C[C@H]3O (stereo partly drawn) [(26), 3β-(bis(3-aminopropyl)methylamine)-N-isopropylcholamide] | 28 µg/mL (≈ 48.5 µM) | 28 µg/mL (≈ 48.5 µM) | 14 µg/mL (≈ 24.3 µM) | 56 µg/mL (≈ 97.1 µM) | 28 µg/mL (≈ 48.5 µM) | 56 µg/mL (≈ 97.1 µM) | 112 µg/mL (≈ 194 µM) | 56 µg/mL (≈ 97.1 µM) | 80 µg/mL (≈ 139 µM) | 4 µg/mL
